Test results published in ChEMBL document CHEMBL4842392, “Targeting KRAS Mutant Protein Inhibitor for Potential Treatment in Cancer” (ACS Med Chem Lett, 2021).
pIC50: −log10 of the molar value. Several values for one entry are separate records, joined by “and”; a condition that tells them apart may be missing. Identical values can stand only once.

How the values were obtained:
[1] = biological target: T1, GTPase KRas (Homo sapiens, UniProt P01116, G12C); experiment: Inhibition of GDP-loaded His-tagged KRAS G12C mutant (2 to 182 residues) (unknown origin) assessed as inhibition of SOS1-catalyzed nucleotide exchange preincubated for 1 hr followed by SOS1 addition measured after 1 hr by TR-FRET assay
[2] = biological target: T1, GTPase KRas; experiment: Inhibition of KRAS G12C mutant in human NCI-H358 cells assessed as reduction in ERK phosphorylation incubated for 2 hrs by HTRF assay; format: cell-based
[3] = tested on: NCI-H358; experiment: Antiproliferative activity against human NCI-H358 cells assessed as inhibition of cell proliferation incubated for 6 days by CCK8 assay; format: functional, cell-based
[4] = Oral bioavailability in Beagle dog at 10 mg/kg measured up to 24 hrs by LC-MS analysis; format: ADME, organism-based, Canis lupus familiaris; settings: in vivo

| SMILES | pIC50 [1] | pIC50 [2] | pIC50 ([3]; Homo sapiens, NCI-H358, 144 h) | pIC50 ([3]; nci-h358) | F ([4]; 10 mg/kg, 24 h) | bioavailability ([4]; beagle) [%] |
| --- | --- | --- | --- | --- | --- | --- |
| C=CC(=O)N1CCN(c2c(C#N)c(=O)n(-c3c(C)ccnc3C(C)C)c3nc(-c4c(N)c(Cl)cc(Cl)c4F)c(Cl)cc23)CC1CC#N (centres undefined) | 8.29 | 7.83 | 7.45 | – | – | – |
| C=CC(=O)N1CCN(c2c(C#N)c(=O)n(-c3c(C)ccnc3C(C)C)c3nc(-c4c(N)c(Cl)cc(Cl)c4F)c(Cl)cc23)CC1 | 8.71 and 8.81 | 7.98 and 7.93 | 7.56 | 7.84 | 98.5% and 63.1% | – |
| C=CC(=O)N1[C@H](C)CN(c2c(C#N)c(=O)n(-c3c(C)ccnc3C(C)C)c3nc(-c4c(N)c(Cl)cc(Cl)c4F)c(Cl)cc23)C[C@@H]1C | 8.55 | 7.42 | 7.76 | – | – | – |
| C=CC(=O)N1CCN(c2c(C#N)c(=O)n(-c3c(C)ccnc3C(C)C)c3nc(-c4c(N)c(Cl)cc(Cl)c4F)c(Cl)cc23)C[C@@H]1CC#N | 8.18 | 7.91 | – | – | – | – |
| C=CC(=O)N1CCN(c2c(C#N)c(=O)n(-c3c(C)ccnc3C(C)C)c3nc(-c4c(N)c(Cl)cc(Cl)c4F)c(Cl)cc23)C[C@H]1C | 8.60 | 7.54 | 7.60 | – | – | 70.3 |
| C=CC(=O)N1CCN(c2c(C#N)c(=O)n(-c3c(C(C)C)ncnc3C(C)C)c3nc(-c4c(N)c(Cl)cc(Cl)c4F)c(Cl)cc23)CC1 | 8.32 | 7.73 | 7.49 | – | – | – |
| C=CC(=O)N1CCN(c2c(C#N)c(=O)n(-c3c(C(C)C)ncnc3C(C)C)c3nc(-c4c(N)cccc4F)c(Cl)cc23)CC1 | – | 7.70 | – | – | – | – |
| C=CC(=O)N1CCN(c2c(C#N)c(=O)n(-c3c(C)ccnc3C(C)C)c3nc(-c4ccccc4F)c(Cl)cc23)CC1 | 8.36 | 7.52 | 7.28 | – | – | – |
